# From patent US12595248B2, “PRMT5 inhibitors” (Merck Sharp & Dohme LLC, priority 2019, dated 2026)
# Like-named read-outs stand apart in the source and are kept apart here.
# Legend:
# PRMT5 = molecular target: T1, PRMT5 (Homo sapiens, UniProt O14744); test: PRMT5 Cell Target Engagement (TE) Assay; assay type: cell-based; conditions: MCF-7 cells, treated for 3 days, symmetric dimethylation of arginine (SDMA) by high content imaging
# T1 construct: seeded with 4000 MCF-7 cells in 30 μl media; endogenous in cells; host or cells: MCF-7 cells
# T1 sequence (O14744 whole entry): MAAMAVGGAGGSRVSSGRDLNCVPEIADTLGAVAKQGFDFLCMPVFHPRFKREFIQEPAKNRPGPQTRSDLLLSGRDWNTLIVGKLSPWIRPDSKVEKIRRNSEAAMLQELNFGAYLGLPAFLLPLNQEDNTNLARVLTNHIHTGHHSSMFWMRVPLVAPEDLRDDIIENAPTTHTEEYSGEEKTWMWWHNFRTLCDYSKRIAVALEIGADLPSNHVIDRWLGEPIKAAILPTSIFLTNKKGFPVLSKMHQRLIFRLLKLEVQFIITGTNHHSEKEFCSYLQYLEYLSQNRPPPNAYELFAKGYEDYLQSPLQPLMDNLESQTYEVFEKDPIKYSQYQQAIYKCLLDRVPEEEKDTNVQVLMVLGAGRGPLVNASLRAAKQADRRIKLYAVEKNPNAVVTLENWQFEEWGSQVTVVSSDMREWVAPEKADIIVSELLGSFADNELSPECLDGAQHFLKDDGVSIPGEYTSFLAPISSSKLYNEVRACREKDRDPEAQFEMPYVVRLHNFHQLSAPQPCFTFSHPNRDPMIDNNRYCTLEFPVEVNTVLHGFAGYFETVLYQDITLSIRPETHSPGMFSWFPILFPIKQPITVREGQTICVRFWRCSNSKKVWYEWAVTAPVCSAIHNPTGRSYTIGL
# T1 sequence (Q9BQA1 whole entry partner): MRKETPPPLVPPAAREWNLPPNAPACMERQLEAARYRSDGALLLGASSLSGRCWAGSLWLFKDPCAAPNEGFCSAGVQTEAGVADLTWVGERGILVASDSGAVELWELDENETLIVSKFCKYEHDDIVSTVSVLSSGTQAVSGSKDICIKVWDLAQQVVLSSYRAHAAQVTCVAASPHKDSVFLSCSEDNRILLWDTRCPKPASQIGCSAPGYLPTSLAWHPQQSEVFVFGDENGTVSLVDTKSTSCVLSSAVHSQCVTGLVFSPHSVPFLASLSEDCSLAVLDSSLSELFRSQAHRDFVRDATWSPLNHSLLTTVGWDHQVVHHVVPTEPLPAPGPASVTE
# Method in brief: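 Readout is single-cell nuclear symmetric-dimethylarginine immunofluorescence (Alexa488), normalized to DMSO-treated cells. Compounds were applied to MCF-7 cells for 3 days at 37 °C, top concentration 10000 nM in 1:3 steps over ten points; curves fitted with 4-parameter robust fit.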
# [1] = molecular target: T2, PRMT5-MEP50 enzyme complex (Homo sapiens, UniProt O14744); test: PRMT5-MEP50 Enzyme Methylation Assay (Version A); assay type: biochemical
# T2 construct: Full-length (FL)-PRMT5-MEP50 enzyme complex (recombinant proteins from baculovirus-transfected Sf21 cells: FL-PRMT5; MW=73837 kDa and FL-MEP50; MW=38614); made in house; host or cells: baculovirus-transfected Sf21 cells
# T2 sequence (O14744 whole entry): as the sequence (O14744 whole entry) above
# T2 sequence (Q9BQA1 whole entry partner): as the sequence (Q9BQA1 whole entry partner) above
# Method: PRMT5-MEP50 Enzyme Methylation Assay (Version A)
# PRMT5-MEP50 biochemical assay is a direct measurement of the methylation activity of the enzyme complex on a short peptide substrate derived from the N-terminus of H4 histone. Methylation experiment was performed with recombinant PRMT5-MEP50 protein complex. The assessment of inhibitory effect of small molecules was measured by the effectiveness of the compounds to inhibit this reaction (EC50).
# In this assay, the potency (EC50) of each compound was determined from a twenty-point (1:2 serial dilution; top compound concentration of 100000 nM) titration curve using the following outlined procedure. To each well of a white ProxiPlus 384 well-plate, 100 nL of compound (1% DMSO in final assay volume of 10 μL) was dispensed, followed by the addition of 8 μL of 1× assay buffer (50 mM Bicine pH 8.0, 1 mM DTT, 0.004% Tween20, 0.01% BSA) containing 1.25 nM of Full-length (FL)-PRMT5-MEP50 enzyme complex (recombinant proteins from baculovirus-transfected Sf21 cells: FL-PRMT5; MW=[…] and FL-MEP50; MW=38614) and 1 μL of 150 μM S-(5′-Adenosyl)-L-Methionine Chloride (SAM). A plate was sealed and placed in a 37° C. humidified chamber for a 60 minutes pre-incubation with compound. Subsequently, each reaction was initiated by the addition of 1 μL 1× assay buffer containing 750 nM biotinylated H4R3 (MeI) peptide. The final reaction in each well of 10 μL consists of 1.0 nM PRMT5-MEP50, 75 nM biotinylated-peptide, and 15 μM SAM. Methylation reactions were allowed to proceed for 150 minutes in a sealed plate at 37° C. Reactions were immediately quenched by the addition of 1 μL of 5% formic acid. A plate was then frozen and shipped to SAMDI™ Tech Inc. to determine the percent conversion from H4R3 (MeI) to H4R3 (Me2). Dose-response curves were generated by plotting percent effect (% product conversion; Y-axis) vs. Log 10 compound concentrations (X-axis). EC50 values were determined by non-linear regression according to models for either sigmoidal (4 parameters) or biphasic (7 parameters) dose-response curves.
# [2] = first of two EC50s: 7 parameters biphasic model, read-out: Enzyme Methylation Assay Version A (EC50_1)
# [3] = second of two EC50s: 7 parameters biphasic model, read-out: Enzyme Methylation Assay Version A (EC50_2)
# [4] = only one EC50 shown: 4 parameters single site sigmoidal model, 60 min pre-incubation with SAM, read-out: Enzyme Methylation Assay Version A (EC50)
EC50 (PRMT5) [nM],"EC50 [1, 2] [nM]","EC50 [1, 3] [nM]","EC50 [1, 4] [nM]",SMILES
54,~3,6760,,"CC(=O)N1CCC(Nc2nccc(C(=O)N3CC[C@H](N4CCc5ccccc5C4)[C@@H](O)C3)c2F)CC1 [Example 18, 1-(4-((4-((3S,4S)-4-(3,4-dihydroisoquinolin-2(1H)-yl)-3-hydroxypiperidine-l-carbonyl)-3-fluoropyridin-2-yl)amino)piperidin-1-yl)ethan-1-one]"
9800,,,507,"CC(=O)N1CCC(Nc2nccc(C(=O)N3CC[C@@H](N4CCc5ccccc5C4)[C@H](O)C3)c2F)CC1 [Example 19, 1-(4-((4-((3R,4R)-4-(3,4-dihydroisoquinolin-2(1H)-yl)-3-hydroxypiperidine-1-carbonyl)-3-fluoropyridin-2-yl)amino)piperidin-1-yl)ethan-1-one]"
6.3,0.4,120,,"CCOc1nc(Br)cn2cc(C(=O)N3CC[C@H](N4CCc5ccccc5C4)[C@@H](O)C3)nc12 [Example 51, (6-bromo-8-ethoxyimidazo[1,2-a]pyrazin-2-yl)((3S,4S)-4-(3,4-dihydroisoquinolin-2(1H)-yl)-3-hydroxypiperidin-1-yl)methanone]"
> 10000,,,580,"O=C(c1ccnc(C(F)F)c1)N1CC[C@H](N2CCc3ccccc3C2)[C@@H](O)C1 [Example 52, (2-(difluoromethyl)pyridin-4-yl)((3S,4S)-4-(3,4-dihydroisoquinolin-2(1H)-yl)-3-hydroxypiperidin-1-yl)methanone]"
> 10000,~28,> 10000,,"O=C(c1ccnc(OC(F)F)c1)N1CC[C@H](N2CCc3ccccc3C2)[C@@H](O)C1 [Example 53, (2-(difluoromethoxy)pyridin-4-yl)((3S,4S)-4-(3,4-dihydroisoquinolin-2(1H)-yl)-3-hydroxypiperidin-1-yl)methanone]"
1.8,,,0.4,"Cc1nc(C)c(-c2cnc3nc(C(=O)N4CC[C@H](N5CCc6ccccc6C5)[C@@H](O)C4)cn3c2)s1 [Example 56, [(3S,4S)-4-(3,4-dihydroisoquinolin-2(1H)-yl)-3-hydroxypiperidin-1-yl][6-(2,4-dimethyl-1,3-thiazol-5-yl)imidazo[1,2-a]pyrimidin-2-yl]methanone]"
8.7,,,1.1,"Cn1nccc1-c1cnc2nc(C(=O)N3CC[C@H](N4CCc5ccccc5C4)[C@@H](O)C3)cn2c1 [Example 57, [(3S,4S)-4-(3,4-dihydroisoquinolin-2(1H)-yl)-3-hydroxypiperidin-1-yl][6-(1-methyl-1H-pyrazol-5-yl)imidazo[1,2-a]pyrimidin-2-yl]methanone]"
0.6,,,0.3,"CO[C@H](C)c1cc(C(C)C)cn2cc(C(=O)N3CC[C@H](N4CCc5ccccc5C4)[C@@H](O)C3)nc12 [Example 58, [(3S,4S)-4-(3,4-dihydroisoquinolin-2(1H)-yl)-3-hydroxypiperidin-1-yl]{8-[(1R)-1-methoxyethyl]-6-(propan-2-yl)imidazo[1,2-a]pyridin-2-yl}methanone]"
4.4,,,0.5,"CO[C@H](C)c1cc(C)cn2cc(C(=O)N3CC[C@H](N4CCc5ccccc5C4)[C@@H](O)C3)nc12 [Example 59, [(3S,4S)-4-(3,4-dihydroisoquinolin-2(1H)-yl)-3-hydroxypiperidin-1-yl]{8-[(1R)-1-methoxyethyl]-6-methylimidazo[1,2-a]pyridin-2-yl}methanone]"
21,,,3.6,"CC(C)N1CCNc2cc(C(=O)N3CC[C@H](N4CCc5ccccc5C4)[C@@H](O)C3)ccc2C1=O [Example 62, 8-((3S,4S)-4-(3,4-dihydroisoquinolin-2(1H)-yl)-3-hydroxypiperidine-1-carbonyl)-4-isopropyl-1,2,3,4-tetrahydro-5H-benzo[e][1,4]diazepin-5-one]"
140,0.7,3310,,"O=C(c1ccc2c(O)c(C3CC3)cnc2c1)N1CC[C@H](N2CCc3ccccc3C2)[C@@H](O)C1 [Example 63, (3-cyclopropyl-4-hydroxyquinolin-7-yl)((3S,4S)-4-(3,4-dihydroisoquinolin-2(1H)-yl)-3-hydroxypiperidin-1-yl)methanone]"
45,1.9,1660,,"CCN1CCNc2cc(C(=O)N3CC[C@H](N4CCc5ccccc5C4)[C@@H](O)C3)ccc2C1=O [Example 64, 8-((3S,4S)-4-(3,4-dihydroisoquinolin-2(1H)-yl)-3-hydroxypiperidine-1-carbonyl)-4-ethyl-1,2,3,4-tetrahydro-5H-benzo[e][1,4]diazepin-5-one]"
9.6,,,3.5,"O=C(c1ccc2c(c1)NCCN(C1CCOC1)C2=O)N1CC[C@H](N2CCc3ccccc3C2)[C@@H](O)C1 (stereo partly drawn) [Example 65, 8-((3S,4S)-4-(3,4-dihydroisoquinolin-2(1H)-yl)-3-hydroxypiperidine-1-carbonyl)-4-(tetrahydrofuran-3-yl)-1,2,3,4-tetrahydro-5H-benzo[e][1,4]diazepin-5-one]"
1810,5.2,861,,"Cc1c(Br)cnc2nc(C(=O)N3CC[C@H](N4CCc5ccccc5C4)[C@@H](O)C3)cn12 [Example 66, (6-bromo-5-methylimidazo[1,2-a]pyrimidin-2-yl)((3S,4S)-4-(3,4-dihydroisoquinolin-2(1H)-yl)-3-hydroxypiperidin-1-yl)methanone]"
49,0.6,53,,"Cc1nc2nc(C(=O)N3CC[C@H](N4CCc5ccccc5C4)[C@@H](O)C3)cn2cc1Br [Example 67, (6-bromo-7-methylimidazo[1,2-a]pyrimidin-2-yl)((3S,4S)-4-(3,4-dihydroisoquinolin-2(1H)-yl)-3-hydroxypiperidin-1-yl)methanone]"
55,1.2,733,,"COc1nc2nc(C(=O)N3CC[C@H](N4CCc5ccccc5C4)[C@@H](O)C3)cn2cc1Br [Example 69, (6-bromo-7-methoxyimidazo[1,2-a]pyrimidin-2-yl)((3S,4S)-4-(3,4-dihydroisoquinolin-2(1H)-yl)-3-hydroxypiperidin-1-yl)methanone]"
> 10000,~45,86100,,"O=C(c1cn2cc(Br)c(O)nc2n1)N1CC[C@H](N2CCc3ccccc3C2)[C@@H](O)C1 [Example 70, (6-bromo-7-hydroxyimidazo[1,2-a]pyrimidin-2-yl)((3S,4S)-4-(3,4-dihydroisoquinolin-2(1H)-yl)-3-hydroxypiperidin-1-yl)methanone]"
10,,,1.1,"O=C(c1cn2cc(Br)cnc2n1)N1CC[C@H](N2CCc3ccccc3C2)[C@@H](O)C1 [Example 71, (6-bromoimidazo[1,2-a]pyrimidin-2-yl)[(3S,4S)-4-(3,4-dihydroisoquinolin-2(1H)-yl)-3-hydroxypiperidin-1-yl]methanone]"
37,0.9,248,,"Cc1cnc2nc(C(=O)N3CC[C@H](N4CCc5ccccc5C4)[C@@H](O)C3)cn2c1 [Example 72, [(3S,4S)-4-(3,4-dihydroisoquinolin-2(1H)-yl)-3-hydroxypiperidin-1-yl](6-methylimidazo[1,2-a]pyrimidin-2-yl)methanone]"
647,41,1550,,"Cc1nc2ncc(C(=O)N3CC[C@H](N4CCc5ccccc5C4)[C@@H](O)C3)n2cc1Br [Example 75, (6-bromo-7-methylimidazo[1,2-a]pyrimidin-3-yl)[(3S,4S)-4-(3,4-dihydroisoquinolin-2(1H)-yl)-3-hydroxypiperidin-1-yl]methanone]"
2230,3.1,1680,,"Cc1c(Br)cnc2ncc(C(=O)N3CC[C@H](N4CCc5ccccc5C4)[C@@H](O)C3)n12 [Example 76, (6-bromo-5-methylimidazo[1,2-a]pyrimidin-3-yl)[(3S,4S)-4-(3,4-dihydroisoquinolin-2(1H)-yl)-3-hydroxypiperidin-1-yl]methanone]"
